# Reference: patent publication US9510598B2, “Nitrogen-containing heterocyclic compounds for plant disease control” (BAYER CROPSCIENCE AG, priority 2012, dated 2016)
# Where “and” joins values, the source holds several entries; their conditions need not be identical. Identical values can stand only once. Like-named read-outs stand apart in the source and are kept apart here.
# How the values were obtained:
# [1] = method [a]: pH 2.7, 0.1% formic acid in water / acetonitrile gradient
# Septoria tritici = experiment: In vivo preventive test on Septoria tritici (leaf spot on wheat); settings: 500 ppm; wheat plants sprayed 24 hours before contamination; grading 21 to 28 days after contamination vs control plants
# Outline: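 Scipion wheat at 1-leaf stage sprayed with compound, controls receiving acetone/tween/DMSO/water vehicle; 24 h later leaves inoculated with Septoria tritici spores (500 000 spores per ml). Efficacy (%) graded versus control plants 21 to 28 days after contamination.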
# [2] = assay type: physicochemical
# Sphaerotheca fuliginea = experiment: In vivo preventive test on Sphaerotheca fuliginea (powdery mildew on cucurbits); settings: 500 ppm; gherkin plants sprayed 24 hours before contamination; grading 12 days after contamination vs control plants
# Protocol: Gherkin plants (“Vert petit de Paris” variety), sown in starter cups on a 50/50 peat soil-pozzolana substrate and grown at 24° C., are treated at the Z11 cotyledon stage by spraying with the active ingredient prepared as described above. Plants, used as controls, are treated with the mixture of acetone/tween/DMSO/water not containing the active material. After 24 hours, the plants are contaminated by spraying the cotyledons with an aqueous suspension of Sphaerotheca fuliginea spores (100 000 spores per ml). The spores are collected from infected plants. […] Grading (% of efficacy) is carried out 12 days after the contamination, in comparison with the control plants.
# Botrytis cinerea = experiment: In vivo preventive test on Botrytis cinerea (grey mould); settings: 500 ppm; gherkin plants sprayed 24 hours before contamination; grading 4-5 days after contamination vs control plants
# Outline: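 Gherkin plants ("Vert petit de Paris") sprayed with compound at Z11 cotyledon stage, then inoculated 24 h later with B. cinerea spores (50 000/ml) in PDB/fructose/NH4NO3/KH2PO4 nutrient solution. Incubated at 17 °C, 80% RH; % efficacy versus solvent-treated controls graded 4–5 days after contamination.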
# [3] = method [a]: HPLC/LC-MS on reversed phase at pH 2.7, 0.1% formic acid in water / acetonitrile, linear gradient 10% to 95% acetonitrile
# [4] = HPLC on reversed phase columns, method [a]: pH 2.7, 0.1% formic acid in water / acetonitrile, linear gradient 10% to 95% acetonitrile
# [5] = HPLC on reversed phase columns, method [a]: pH 2.7, 0.1% formic acid in water and acetonitrile, linear gradient 10% to 95% acetonitrile
"Log P ([1]; Table 2, formula (II))",SMILES,% of efficacy (protection) (Septoria tritici),% of efficacy (protection) (Sphaerotheca fuliginea),% of efficacy (protection) (Botrytis cinerea),other results
3.09[a],COC(=O)C12ON=C(c3ccc4ncc(Br)cc4c3)C1C2C (stereo not drawn) [II-51],–,–,–,–
3.99[a],CCOC(=O)C1(OC)CC(c2cc(C)c3ncc(Br)cc3c2)=NO1 (stereo not drawn) [II-91],–,–,–,–
2.52[a],C=C(C)C1(C(=O)O)CC(c2ccc3ncc(Br)cc3c2)=NO1 (stereo not drawn) [II-73],–,–,–,–
2.25[a],CC1(C(=O)O)CC(c2cc3cc(Br)cnc3c(F)c2F)=NO1 (racemic) [II-02],–,–,–,–
3.69[a],CCOC(=O)C1(OC)CC(c2cc(Cl)c3ncc(Br)cc3c2)=NO1 (stereo not drawn) [II-87],–,–,–,–
–,ON=Cc1cc(Cl)c2ncc(Br)cc2c1 [V-17],–,–,–,"Log P ([1]; Table 3, formula (V)): 2.40[a]"
2.20[a],C#Cc1cnc2c(Cl)cc(C3=NOC(C)(C(=O)O)C3)cc2c1 (stereo not drawn) [II-78],–,–,–,–
3.01[a],C#Cc1cc2cc(C3=NOC(C)(C(=O)OC)C3)ccc2nc1Cl (stereo not drawn) [II-56],–,–,–,–
2.80[a],COC(=O)C12OCCCC1C(c1ccc3ncc(Br)cc3c1)=NO2 (stereo not drawn) [II-32],–,–,–,–
3.02[a],COC(=O)C1(C)CC(c2ccc3nc(C#N)c(Br)cc3c2)=NO1 (stereo not drawn) [II-47],–,–,–,–
1.42[a],N#CC1(C(=O)O)CC(c2ccc3ncc(Br)cc3c2)=NO1 (stereo not drawn) [II-94],–,–,–,–
2.23[a],CC1(C(=O)O)CC(c2ccc3nc(C#N)c(Br)cc3c2)=NO1 (stereo not drawn) [II-46],–,–,–,–
2.14[a],CC1(C(=O)O)CC(c2cc3cc(Br)cnc3cc2F)=NO1 (racemic) [II-07],–,–,–,–
2.30[a],CCC1(C(=O)O)CC(c2ccc3ncc(Br)cc3c2)=NO1 (stereo not drawn) [II-64],–,–,–,–
2.94[a],COC(=O)C1(C(C)=O)CC(c2ccc3ncc(Br)cc3c2)=NO1 (stereo not drawn) [II-40],–,–,–,–
3.46[a],C#Cc1cnc2c(C)cc(C3=NOC(OC)(C(=O)OCC)C3)cc2c1 (stereo not drawn) [II-86],–,–,–,–
3.42[a],C[Si](C)(C)CC1(C(=O)O)CC(c2ccc3ncc(Br)cc3c2)=NO1 (stereo not drawn) [II-54],–,–,–,–
3.53[a],CC(C)OC(=O)C1(C)CC(c2ccc3ncc(Br)cc3c2)=NO1 (stereo not drawn) [II-59],–,–,–,–
1.73[a],COC1(C(=O)O)CC(c2ccc3ncc(Br)cc3c2)=NO1 (racemic) [II-04],–,–,–,–
3.34 and 3.62,COC(=O)C1(C)CC(c2ccc3nc(Cl)c(I)cc3c2)=NO1 (stereo not drawn) [II-60],–,–,–,–
2.35[a],C#Cc1cnc2ccc(C3=NOC(C)(C(=O)OC)C3)cc2c1 (stereo not drawn) [II-35],–,–,–,–
2.71[a],COC(=O)C1ON=C(c2ccc3ncc(Br)cc3c2)C12CC2 (stereo not drawn) [II-41],–,–,–,–
3.04[a],COC(=O)C1(OC)CC(c2cc3cc(Br)cnc3c(F)c2F)=NO1 (racemic) [II-24],–,–,–,–
–,ON=Cc1ccc2ncc(Br)cc2c1 [V-09],–,–,–,"Log P ([1]; Table 3, formula (V)): 1.88[a]"
2.11[a],O=C(O)C1(CCl)CC(c2ccc3ncc(Br)cc3c2)=NO1 (racemic) [II-06],–,–,–,–
3.55[a],COC(=O)C1(C)CC(c2cc(C)c3ncc(Br)cc3c2)=NO1 (stereo not drawn) [II80],–,–,–,–
2.20[a],C#Cc1cnc2ccc(C3=NOC(OC)(C(=O)OCCCC(C)NC(C)CCCOC(=O)C4(OC)CC(c5ccc6ncc(C#C)cc6c5)=NO4)C3)cc2c1 (stereo not drawn) [II-71],–,–,–,–

"Log P ([1]; Table 2, formula (II))",SMILES,% of efficacy (protection) (Septoria tritici),% of efficacy (protection) (Sphaerotheca fuliginea),% of efficacy (protection) (Botrytis cinerea),other results
3.29[a],COC(=O)C1(C)CC(c2cc(Cl)c3ncc(Br)cc3c2)=NO1 (stereo not drawn) [II-76],–,–,–,–
2.58[a],COC(=O)C1(C(C)=NO)CC(c2ccc3ncc(Br)cc3c2)=NO1 (stereo not drawn) [II-39],–,–,–,–
2.42[a],COC1(C(=O)O)CC(c2cc(C)c3ncc(Br)cc3c2)=NO1 (stereo not drawn) [II-92],–,–,–,–
3.99[a],CCOC(=O)C1(C)ON=C(c2ccc3ncc(Br)cc3c2)C1OCC (stereo not drawn) [II-49],–,–,–,–
3.06[a],COC(=O)C1(C)CC(c2cc3cc(Br)cnc3c(F)c2F)=NO1 (stereo not drawn) [II-27],–,–,–,–
3.72[a],COC(=O)C1(C(F)(F)F)CC(c2cc3cc(Br)cnc3c(F)c2F)=NO1 (racemic) [II-22],–,–,–,–
3.03[a],COC(=O)C1(CCl)CC(c2ccc3ncc(Br)cc3c2)=NO1 (racemic) [II-16],–,–,–,–
–,C#Cc1cnc2ccc(C3=NOC(C)(C(=O)NC4CCC4)C3)cc2c1 (stereo not drawn) [compound 120],100%,94%,100%,"log P [2, 3]: 2.58^[a]"
–,CC1(C)OCC(CNC(=O)C2(C)CC(c3cc(Cl)c4ncc(Br)cc4c3)=NO2)O1 (stereo not drawn) [compound 540],92%,94%,100%,"log P [2, 4]: 3.17[a]"
–,CCOCCCNC(=O)C1(C)CC(c2ccc3ncc(Br)cc3c2)=NO1 (stereo not drawn) [compound 32],79% and 97%,100%,98%,"log P [2, 3]: 2.69^[a]"
–,CC(NC(=O)C1(C)CC(c2ccc3ncc(Br)cc3c2)=NO1)C1=NOCC1 (stereo not drawn) [compound 293],96%,90%,97%,"log P [2, 4]: 2.34[a]"
–,CCc1cnc2ccc(C3=NOC(C)(C(=O)NC(C)C)C3)cc2c1 (stereo not drawn) [Compound No. 259],100%,94%,75%,chromatographic logP ([2]; pH 2.7): 1.94
–,Cc1nc(C)c(C(C)NC(=O)C2(C)CC(c3ccc4ncc(Br)cc4c3)=NO2)s1 (stereo not drawn) [compound 296],100%,100%,97%,"log P [2, 4]: 2.46[a]"
–,C#Cc1cnc2ccc(C3=NOC(C)(C(=O)NCC)C3)cc2c1 (stereo not drawn) [compound 527],97%,94%,100%,"log P [2, 4]: 2.12[a]"
–,C#Cc1cnc2ccc(C3=NOC(C)(C(=O)NCc4cccnc4)C3)cc2c1 (stereo not drawn) [compound 103],75%,78%,98%,"log P [2, 3]: 1.26^[a]"
–,C#Cc1cnc2c(Cl)cc(C3=NOC(C)(C(=O)NCc4cnc(C)cn4)C3)cc2c1 (stereo not drawn) [compound 558],100%,85%,97%,"log P [2, 4]: 2.39[a]"
–,CNC(=O)C1(C)CC(c2ccc3ncc(Br)cc3c2)=NO1 (stereo not drawn) [compound 532],100%,89%,100%,"log P [2, 4]: 2.07[a]"
–,C#Cc1cnc2c(C)cc(C3=NOC(C)(C(=O)NCCCOCC)C3)cc2c1 (racemic) [compound 546],83%,100%,100%,"log P [2, 4]: 3.04[a]"
–,CCCn1cc(CNC(=O)C2(C)CC(c3cc(C)c4ncc(Br)cc4c3)=NO2)c(C)n1 (stereo not drawn) [compound 534],92%,100%,100%,"log P [2, 4]: 3.29[a]"
–,C#Cc1cnc2ccc(C3=NOC(C(=O)NCc4cn(CC)nc4C)(C(F)F)C3)cc2c1 (stereo not drawn) [compound 613],79%,100%,100%,"log P [2, 4]: 2.39[a]"
–,C#Cc1cnc2ccc(C3=NOC(C)(C(=O)NCC4CCCO4)C3)cc2c1 (stereo not drawn) [compound 132],100%,94%,98%,"log P [2, 3]: 2.17^[a]"
–,C=CC1(C(=O)NC(C)C)CC(c2ccc3ncc(Br)cc3c2)=NO1 (stereo not drawn) [compound 734],100%,98%,95%,"log P [2, 5]: 3.08[a]"
–,C#Cc1cnc2ccc(C3=NOC(C)(C(=O)NCc4cncn4C)C3)cc2c1 (stereo not drawn) [compound 155],100%,89%,100%,"log P [2, 3]: 1.91^[a]"
–,CC(C)NC(=O)C1(C)CC(c2cc(Cl)c3ncc(Br)cc3c2)=NO1 (stereo not drawn) [compound 541],100%,98%,100%,"log P [2, 4]: 3.29[a]"
–,C#Cc1cnc2ccc(C3=NOC(C=C)(C(=O)NC(C)C)C3)cc2c1 (stereo not drawn) [compound 727],100%,98%,98%,"log P [2, 5]: 2.73[a]"
–,C#Cc1cnc2c(Cl)cc(C3=NOC(C)(C(=O)NCCCOCC)C3)cc2c1 (racemic) [compound 545],100%,100%,100%,"log P [2, 4]: 2.94[a]"
–,CCOCCCNC(=O)C1(OC)CC(c2ccc3ncc(I)cc3c2)=NO1 (racemic) [compound 448],98%,100%,98%,"log P ([2]; method [a]: HPLC/LC-MS on reversed phase at pH 2.7, 0.1% formic acid in water / acetonitrile, gradient 10% to 95% acetonitrile): 2.80[a]"
